ChEMBL document CHEMBL1123112, “A new generation of phosphodiesterase inhibitors: multiple molecular forms of phosphodiesterase and the potential for drug selectivity” (J Med Chem, 1985)
One block for each compound: values may come before it.

Experiments:
Phosphodiesterase 3 [1] = biological target: T1, Phosphodiesterase 3 (Homo sapiens, UniProt Q14432+Q13370); test: Binding affinity for low Km cAMP phosphodiesterase PDE III of human platelets
Phosphodiesterase 1 [2] = biological target: T2, Phosphodiesterase 1 (Homo sapiens, UniProt P54750+Q01064+Q14123); test: Binding affinity for [Ca(2+)]/calmodulin dependent phosphodiesterase PDE 1 of human brain
Phosphodiesterase 1 [3] = biological target: T2, Phosphodiesterase 1; test: Inhibition of [Ca(2+)]/calmodulin dependent phosphodiesterase PDE 1 of human brain
Phosphodiesterase 3 [4] = biological target: T1, Phosphodiesterase 3; test: Inhibition of low Km cAMP phosphodiesterase PDE III of human platelets
Phosphodiesterase 1 [5] = biological target: T2, Phosphodiesterase 1; test: Binding affinity for [Ca(2+)]/calmodulin dependent phosphodiesterase PDE 1 of sheep lung; assay type: protein assay, Ovis aries; conditions: target entry is the homologue from another species
Phosphodiesterase 3 [6] = biological target: T1, Phosphodiesterase 3; test: Binding affinity for low Km cAMP phosphodiesterase PDE III of sheep lung; conditions: target entry is the homologue from another species
Phosphodiesterase 1 [7] = biological target: T2, Phosphodiesterase 1; test: Inhibition of [Ca(2+)]/calmodulin dependent phosphodiesterase PDE 1 of guinea pig ventricle; assay type: protein assay, Cavia porcellus; conditions: target entry is the homologue from another species
[8] = biological target: T3, cGMP-dependent 3',5'-cyclic phosphodiesterase (Homo sapiens, UniProt O00408); test: Inhibition of cyclic GMP sensitive phosphodiesterase PDE 2 of guinea pig ventricle; parameters: species or system Cavia porcellus; conditions: target entry is the homologue from another species
Phosphodiesterase 3 [9] = biological target: T1, Phosphodiesterase 3; test: Inhibition of low Km cyclic cAMP phosphodiesterase PDE III of guinea pig ventricle; assay type: protein assay, Cavia porcellus; conditions: target entry is the homologue from another species
Phosphodiesterase 1 [10] = biological target: T2, Phosphodiesterase 1; test: Percent inhibition of [Ca(2+)]/calmodulin dependent phosphodiesterase PDE 1 of guinea pig ventricle; assay type: protein assay; conditions: Cavia porcellus; target entry is the homologue from another species; concentration not given here
[11] = biological target: T3, cGMP-dependent 3',5'-cyclic phosphodiesterase; test: Percent inhibition of cyclic GMP sensitive phosphodiesterase PDE 2 of guinea pig ventricle; conditions: Cavia porcellus; target entry is the homologue from another species; concentration not given here
Phosphodiesterase 3 [12] = biological target: T1, Phosphodiesterase 3; test: Percent inhibition of low Km cyclic cAMP phosphodiesterase PDE III of guinea pig ventricle; assay type: protein assay; conditions: Cavia porcellus; target entry is the homologue from another species; concentration not given here
Phosphodiesterase 1 [13] = biological target: T2, Phosphodiesterase 1; test: Inhibition of [Ca(2+)]/calmodulin dependent phosphodiesterase PDE 1 of rabbit renal cortex; conditions: Oryctolagus cuniculus; target entry is the homologue from another species
[14] = biological target: T3, cGMP-dependent 3',5'-cyclic phosphodiesterase; test: Inhibition of cyclic GMP sensitive phosphodiesterase PDE 2 of human lung
Phosphodiesterase 1 [15] = biological target: T2, Phosphodiesterase 1; test: Inhibition of [Ca(2+)]/calmodulin dependent phosphodiesterase PDE 1 of human lung; assay type: protein assay
Phosphodiesterase 3 [16] = biological target: T1, Phosphodiesterase 3; test: Binding affinity for low Km cAMP phosphodiesterase PDE III of sheep lung; assay type: protein assay, Ovis aries; conditions: target entry is the homologue from another species
Phosphodiesterase 3 [17] = biological target: T1, Phosphodiesterase 3; test: Inhibition of low Km cyclic AMP phosphodiesterase PDE III of canine ventricle; assay type: protein assay, Canis lupus familiaris; conditions: target entry is the homologue from another species

T3 sequence (O00408 whole entry): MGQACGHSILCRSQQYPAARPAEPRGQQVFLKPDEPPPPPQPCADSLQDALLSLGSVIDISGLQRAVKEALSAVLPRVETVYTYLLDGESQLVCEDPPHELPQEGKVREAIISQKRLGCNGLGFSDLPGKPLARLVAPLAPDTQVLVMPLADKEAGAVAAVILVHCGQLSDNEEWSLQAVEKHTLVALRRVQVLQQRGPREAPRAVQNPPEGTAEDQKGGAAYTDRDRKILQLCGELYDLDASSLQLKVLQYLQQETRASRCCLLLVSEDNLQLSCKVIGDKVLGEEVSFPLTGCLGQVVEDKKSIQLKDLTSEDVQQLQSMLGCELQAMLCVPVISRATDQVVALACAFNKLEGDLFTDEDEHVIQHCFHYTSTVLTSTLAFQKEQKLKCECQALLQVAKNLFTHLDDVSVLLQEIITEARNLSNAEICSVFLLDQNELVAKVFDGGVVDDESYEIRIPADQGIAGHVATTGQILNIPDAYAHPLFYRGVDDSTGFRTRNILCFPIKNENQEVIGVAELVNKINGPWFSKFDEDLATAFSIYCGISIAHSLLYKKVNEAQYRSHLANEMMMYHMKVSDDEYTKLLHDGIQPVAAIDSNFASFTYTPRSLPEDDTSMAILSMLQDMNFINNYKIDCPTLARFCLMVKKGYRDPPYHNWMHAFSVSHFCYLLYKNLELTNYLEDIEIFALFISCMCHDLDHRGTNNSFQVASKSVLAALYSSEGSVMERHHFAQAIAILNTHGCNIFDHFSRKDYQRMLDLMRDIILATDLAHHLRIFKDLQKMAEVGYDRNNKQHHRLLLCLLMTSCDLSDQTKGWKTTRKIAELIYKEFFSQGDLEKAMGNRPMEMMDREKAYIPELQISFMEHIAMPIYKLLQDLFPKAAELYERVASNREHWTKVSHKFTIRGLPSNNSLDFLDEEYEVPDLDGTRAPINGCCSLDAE

Ki (Phosphodiesterase 3 [1]): 270 µM | Ki (Phosphodiesterase 1 [2]): 4 µM
SMILES: CCOC(CN1CCN(S(=O)(=O)c2ccc3ncnc(N(C)c4ccccc4)c3c2)CC1)c1ccccc1 (centres undefined)

Ki (Phosphodiesterase 3 [1]): 16 µM
SMILES: Clc1cccc(Nc2nnc(-c3ccccc3)c3ccccc23)c1

IC50 (Phosphodiesterase 1 [3]): > 1000 µM | IC50 (Phosphodiesterase 3 [4]): 0.073 µM
SMILES: CCC(O)CN(C(=O)CCCCOc1ccc2c(c1)CCC(=O)N2)c1ccccc1 (centres undefined)

inhibition (Phosphodiesterase 1 [10]): 5% | inhibition [11]: 0% | inhibition (Phosphodiesterase 3 [12]): 92%
SMILES: CC(Cl)C(=O)Nc1ccc(C2=NNC(=O)CC2C)cc1 (centres undefined)

inhibition (Phosphodiesterase 1 [10]): 15% | inhibition [11]: 6% | inhibition (Phosphodiesterase 3 [12]): 97%
SMILES: CC1CC(=O)NN=C1c1ccc2c(c1)CCC(=O)N2C (centres undefined)

IC25 (Phosphodiesterase 1 [13]): 1400 µM
SMILES: COc1ccc(C2CNC(=O)C2)cc1OC1CCCC1 (centres undefined)

IC50 [14]: 80 µM | IC50 (Phosphodiesterase 1 [15]): 16 µM
SMILES: CCCCc1cc2c(=O)cc(C(=O)O)[nH]c2c2c(=O)cc(C(=O)O)[nH]c12 [BUFROLIN]

IC50 (Phosphodiesterase 1 [7]): > 1000 µM | IC50 [8]: 700 µM
SMILES: Nc1cc(-c2ccncc2)c[nH]c1=O [INAMRINONE]

IC50 [14]: 12 µM | IC50 (Phosphodiesterase 1 [15]): 3.4 µM
SMILES: CC(C)Cn1c(=O)n(C)c(=O)c2nc[nH]c21 [ISOBUTYLMETHYLXANTHINE]

IC50 [14]: 390 µM | IC50 (Phosphodiesterase 1 [15]): 250 µM
SMILES: CCCCOc1cc(CC2CNC(=O)N2)ccc1OC (centres undefined) [RO-201724]

Second part, the compound before the results:

SMILES: CCCc1nc(C)cn2c(NC(C)=O)nnc12
Ki (Phosphodiesterase 1 [5]): 717 µM | Ki (Phosphodiesterase 3 [6]): 217 µM

SMILES: COc1ccc(-c2nc3ccc[nH]c-3n2)c(OC)c1
IC50 (Phosphodiesterase 1 [7]): 265 µM | IC50 [8]: 57 µM | IC50 (Phosphodiesterase 3 [9]): 390 µM

SMILES: CN(C(=O)CCCOc1ccc2[nH]c(=O)ccc2c1)C1CCCCC1 [CILOSTAMIDE]
Ki (Phosphodiesterase 1 [2]): 22 µM

SMILES: O=C1CCc2cc(OCCCCc3nnnn3C3CCCCC3)ccc2N1 [CILOSTAZOL]
IC50 (Phosphodiesterase 1 [3]): > 1000 µM | IC50 (Phosphodiesterase 3 [4]): 0.19 µM

SMILES: OCCN(CCO)c1nc(N2CCCCC2)c2nc(N(CCO)CCO)nc(N3CCCCC3)c2n1 [DIPYRIDAMOLE]
IC50 (Phosphodiesterase 3 [9]): 43 µM

SMILES: CSc1ccc(C(=O)c2[nH]c(=O)[nH]c2C)cc1 [ENOXIMONE]
IC50 (Phosphodiesterase 1 [7]): > 1000 µM | IC50 [8]: 520 µM

SMILES: CCOC(=O)c1cnc2c(cnn2CC)c1NN=C(C)C [ETAZOLATE]
Ki (Phosphodiesterase 3 [16]): 12 µM | Ki (Phosphodiesterase 1 [5]): 60 µM

SMILES: CCOC(=O)c1c(C)cc2c(CO)n[nH]c(=O)c2c1C [OXAGRELATE]
Ki (Phosphodiesterase 3 [1]): 1.4 µM | Ki (Phosphodiesterase 1 [2]): 10 µM

SMILES: CCc1[nH]c(=O)[nH]c1C(=O)c1ccncc1 [PIROXIMONE]
IC50 (Phosphodiesterase 3 [17]): 8.6 µM

SMILES: COc1cc([S+](C)[O-])ccc1-c1nc2ncccc2[nH]1 (centres undefined) [SULMAZOLE]
IC50 [8]: 200 µM

SMILES: Cn1c(=O)c2nc[nH]c2n(C)c1=O.O [THEOPHYLLINE]
IC50 (Phosphodiesterase 1 [7]): 320 µM | IC50 [8]: 210 µM
